Blank lines part the entries; values can stand above or below the compound they belong to.
Tested on: KCNQ channels
Assay: Thallium flux assay for KCNQ channel openers
Assay type: cell-based
Conditions: HEK-293 cells stably transfected with a KCNQ family member; for Min conc. response: minimal active concentration: lowest concentration giving signal >= 4 SD of negative controls; for EC50: thallium flux, 10 point concentration series
Description: Thallium Flux Assay for KCNQ Channel Openers.
The thallium assay is a modification of that published by Weaver and is referenced in its entirety (Weaver, C. D. WO 02/31508, 2002).
Approximately 20,000 cells/well of an HEK-293 cell line stably transfected with one of the members of the KCNQ family were plated into clear-bottom, black-walled, poly-D-lysine coated, 384 well assay plates in 20 μl/well of low chloride plating medium. Low chloride plating medium was composed of the following: sodium gluconate, 109 mM; potassium gluconate, 5.4 mM; hemi-calcium gluconate, 3.6 mM; magnesium sulfate, 0.8 mM; sodium bicarbonate, 26.2 mM; sodium phosphate monobasic, 1.2 mM; glutamine, 2 mM; glucose, 5 mM; 4-(2-hydroxyethyl)-1-piperazineethanesulfonic acid (HEPES) (pH 7.3) 10 mM, MEM vitamin solution (10× concentration of vitamins, Gibco/LifeTechnologies 11120-052) and MEM amino acid solution (1× concentration of amino acids, Gibco/LifeTechnologies 11130-051).
Following overnight incubation in a 5% CO2 incubator at 37° C., the cells in the plates were loaded with 20 μl/well of a dye loading solution containing the commercially available thallium-sensitive fluorescent dye BTC-AM, the acetomethoxy ester of BTC (see U.S. Pat. No. 5,501,980) (2 μM) and pluronic acid F-127 (Molecular Probes P 6867) (0.02% w/v) in chloride free assay buffer. Chloride free assay buffer was composed of the following: sodium gluconate, 140 mM; potassium gluconate, 2.5 mM; hemi-calcium gluconate, 6 mM; hemi-magnesium gluconate, 2 mM; glucose, 5 mM; HEPES (pH 7.3), 10 mM.
Following incubation in the dye loading solution for from 45-90 min at room temperature, the dye loading solution was removed by aspiration and replaced with 40 μl/well of chloride free assay buffer.
Prior to addition to cell plates, test compound and standard compounds were dissolved in DMSO to 3 mM concentration. Compounds were then diluted from the 3 mM stock to 100-fold over the final assay concentration in DMSO. Finally, compounds in DMSO were diluted from 100-fold over the final assay concentration to 5-fold over the final assay concentration in chloride free assay buffer.
Ten μl/well of compounds at 5-fold over the final assay concentration were then added to the cell plates. This represents a 1:5 dilution, yielding the final test concentration. The wells used for test compounds were A1-P20. Wells A21-P22 contained a standard opener and a maximally efficacious concentration (positive control). Wells A23-P24 contained chloride free assay buffer containing 1% DMSO (negative control).
Following addition of test compounds, the plates were loaded onto the Molecular Devices FLIPR. The 488 nm line of the argon laser was used to excite the BTC and the emission filter was a 540(+/−30) nm. Images were collected at 1 Hz. Ten seconds of baseline were collected and then the FLIPR was used to add 13 μl/well of a stimulus buffer composed of 7.5 mM Tl2SO4 in chloride free assay buffer. Images were collected for an additional 60 seconds.
For data analysis, the amplitude of the average of the negative controls was subtracted from all wells. The amplitudes of the test compounds were then compared to the value of four standard deviations of the negative control wells. The lowest concentration of a test compound sufficient to generate a signal amplitude greater than or equal to four standard deviations from the amplitude of the negative controls was defined as the minimal active concentration.
For generating EC50 values, compounds were serially diluted in 1:3 volume increments to produce a 10 point concentration series. EC50 values were calculated by fitting the resulting amplitudes to a single-site logistic equation. EC50 was defined as the concentration of test compound required to yield 50% of the maximal response. Maximal response (Maximal opening) was the largest signal amplitude divided by the negative control amplitude generated by any concentration of a test compound. […]

Structure (SMILES): CC(NC(=O)c1sc(CCN2CCN(C)CC2)nc1C(F)(F)F)c1cccc(OC(F)(F)F)c1 (stereo not shown) [Example 21, 2-[2-(4-methyl-1-piperazinyl)ethyl]-N-[1-[3-(3-trifluoromethoxy)phenyl]ethyl]-4-(trifluoromethyl)-5-thiazolecarboxamide]
Min conc. response: 0.3 µM
EC50: 1 to 20 µM

Structure (SMILES): CC(NC(=O)c1sc(CCN(C)Cc2ccco2)nc1C(F)(F)F)c1cccc(OC(F)(F)F)c1 (stereo not shown) [Example 14, 2-[2-[(2-furanylmethyl)methylamino]ethyl]-4-(trifluoromethyl)-N-[1-[3-(trifluoromethoxy)phenyl]ethyl]-5-thiazolecarboxamide]
Min conc. response: 3 µM
EC50: < 0.05 µM

Structure (SMILES): C[C@H](NC(=O)c1sc(C(O)CN2CCCC2)nc1C(F)(F)F)c1cccc(N2CCOCC2)c1 (stereo partly drawn) [Example 59, 2-[1-hydroxy-2-(1-pyrrolidinyl)ethyl]-N-[(1S)-1-[3-(4-morpholinyl)phenyl]ethyl]-4-(trifluoromethyl)-5-thiazolecarboxamide]
Min conc. response: 30 µM

Structure (SMILES): CC(NC(=O)c1sc(CCN2CCC(O)CC2)nc1C(F)(F)F)c1cccc(C(F)(F)F)c1 (stereo not shown) [Example 27, 2-[2-(4-hydroxy-1-piperidinyl)ethyl]-4-(trifluoromethyl)-N-[1-[3-(trifluoromethyl)phenyl]ethyl]-5-thiazolecarboxamide]
Min conc. response: 30 µM
EC50: 1 to 20 µM

Structure (SMILES): CC(NC(=O)c1sc(CCN(C)Cc2ccco2)nc1C(F)(F)F)c1cccc(-c2cccnc2)c1 (stereo not shown) [Example 12, 2-[2-[(2-furanylmethyl)methylamino]ethyl]-N-[1-[3-(3-pyridinyl)phenyl]ethyl]-4-(trifluoromethyl)-5-thiazolecarboxamide]
Min conc. response: 3 µM
EC50: < 0.05 µM

Structure (SMILES): CC(NC(=O)c1sc(CCNC2CCCC2)nc1C(F)(F)F)c1cccc(OC(F)(F)F)c1 (stereo not shown) [Example 36, 2-[2-(cyclopentylamino)ethyl]-N-[1-[3-(trifluoromethoxy)phenyl]ethyl]-4-(trifluoromethyl)-5-thiazolecarboxamide]
Min conc. response: 30 µM
EC50: 1 to 20 µM

Structure (SMILES): COCCN(CCOC)CCc1nc(C(F)(F)F)c(C(=O)NC(C)c2cccc(C(F)(F)F)c2)s1 (stereo not shown) [Example 39]
Min conc. response: 3 µM
EC50: 1 to 20 µM

Structure (SMILES): CC(NC(=O)c1sc(C(O)CN2CCN(C)CC2)nc1C(F)(F)F)c1cccc(C(F)(F)F)c1 (stereo not shown) [Example 53, 2-[1-hydroxy-2-(4-methyl-1-piperazinyl)ethyl]-4-(trifluoromethyl)-N-[1-[3-(trifluoromethyl)phenyl]ethyl]-5-thiazolecarboxamide]
Min conc. response: 30 µM

Structure (SMILES): CC(NC(=O)c1sc(C(O)CN2CCCCC2)nc1C(F)(F)F)c1cccc(C(F)(F)F)c1 (stereo not shown) [Example 56, 2-[1-hydroxy-2-(1-piperidinyl)ethyl]-4-(trifluoromethyl)-N-[1-[3-(trifluoromethyl)phenyl]ethyl]-5-thiazolecarboxamide]
Min conc. response: 30 µM

Structure (SMILES): C[C@H](NC(=O)c1sc(C(O)CN2CCN(C)CC2)nc1C(F)(F)F)c1cccc(-c2cccnc2)c1 (stereo partly drawn) [Example 55, 2-[1-hydroxy-2-(4-methyl-1-piperazinyl)ethyl]-N-[(1S)-1-[3-(3-pyridinyl)phenyl]ethyl]-4-(trifluoromethyl)-5-thiazolecarboxamide]
Min conc. response: 0.3 µM

Structure (SMILES): CC(=O)N1CCN(CC(O)c2nc(C(F)(F)F)c(C(=O)NC(C)c3cccc(C(F)(F)F)c3)s2)CC1 (stereo not shown) [Example 61, 2-[2-(4-acetyl-1-piperazinyl)-1-hydroxyethyl]-4-(trifluoromethyl)-N-[1-[3-(trifluoromethyl)phenyl]ethyl]-5-thiazolecarboxamide]
Min conc. response: 10 µM

Structure (SMILES): CC(NC(=O)c1sc(C(O)CN2CCCC2)nc1C(F)(F)F)c1cccc(C(F)(F)F)c1 (stereo not shown) [Example 42, 2-[1-hydroxy-2-(1-pyrrolidinyl)ethyl]-N-[1-[3-(trifluoromethyl)phenyl]ethyl]-4-(trifluoromethyl)-5-thiazolecarboxamide]
Min conc. response: 3 µM
EC50: 0.05 to 1 µM

Structure (SMILES): C[C@H](NC(=O)c1sc(CCN2CCN(C)CC2)nc1C(F)(F)F)c1cccc(N2CCOCC2)c1 [Example 48, 2-[2-(4-methyl-1-piperazinyl)ethyl]-N-[(1S)-1-[3-(4-morpholinyl)phenyl]ethyl]-4-(trifluoromethyl)-5-thiazolecarboxamide]
Min conc. response: 3 µM

Structure (SMILES): CC(NC(=O)c1sc(C(O)CN(C)Cc2ccco2)nc1C(F)(F)F)c1cccc(C(F)(F)F)c1 (stereo not shown) [Example 43, 2-[1-hydroxy-[2-(2-furanylmethyl)methylamino]ethyl]-N-[1-[3-(trifluoromethyl)phenyl]ethyl]-4-(trifluoromethyl)-5-thiazolecarboxamide]
Min conc. response: 3 µM
EC50: 0.05 to 1 µM

Structure (SMILES): CC(NC(=O)c1sc(C(O)CN2CCCC2)nc1C(F)(F)F)c1cccc(OC(F)(F)F)c1 (stereo not shown) [Example 57, 2-[1-hydroxy-2-(1-pyrrolidinyl)ethyl]-N-[1-[3-(trifluoromethoxy)phenyl]ethyl]-4-(trifluoromethyl)-5-thiazolecarboxamide]
Min conc. response: 3 µM

Structure (SMILES): CC(NC(=O)c1sc(CCN2CCCCC2)nc1C(F)(F)F)c1cccc(OC(F)(F)F)c1 (stereo not shown) [Example 22, 2-[2-(1-piperidinyl)ethyl]-N-[1-[3-(3-trifluoromethoxy)phenyl]ethyl]-4-(trifluoromethyl)-5-thiazolecarboxamide]
Min conc. response: 0.3 µM
EC50: 0.05 to 1 µM

Second part, led by results:

EC50: 1 to 20 µM
Structure (SMILES): CC(NC(=O)c1sc(CCN2CCCCC2)nc1C(F)(F)F)c1cccc(N(C)C)c1 (stereo not shown) [Example 23, N-[1-[3-(dimethylamino)phenyl]ethyl]-2-[2-(1-piperidinyl)ethyl]-4-(trifluoromethyl)-5-thiazolecarboxamide]
Min conc. response: 0.3 µM

EC50: 1 to 20 µM
Structure (SMILES): C[C@H](NC(=O)c1sc(CCN2CCCCC2)nc1C(F)(F)F)c1cccc(-c2cccnc2)c1 [Example 32, 2-[2-(1-piperidinyl)ethyl]-N-[1-[3-(3-pyridinyl)phenyl]ethyl]-4-(trifluoromethyl)-5-thiazolecarboxamide]
Min conc. response: 3 µM

EC50: 1 to 20 µM
Structure (SMILES): CC(NC(=O)c1sc(CCN(C)Cc2ccncc2)nc1C(F)(F)F)c1cccc(C(F)(F)F)c1 (stereo not shown) [Example 17, 2-[2-[(4-pyridylmethyl)methylamino]ethyl]-4-(trifluoromethyl)-N-[1-[3-(trifluoromethyl)phenyl]ethyl]-5-thiazolecarboxamide]
Min conc. response: 3 µM

EC50: 1 to 20 µM
Structure (SMILES): CC(NC(=O)c1sc(CCN2CCCC2)nc1C(F)(F)F)c1cccc(C(F)(F)F)c1 (stereo not shown) [Example 10, 2-[2-(1-pyrrolidinyl)ethyl]-4-(trifluoromethyl)-N-[1-[3-(trifluoromethyl)phenyl]ethyl]-5-thiazolecarboxamide]
Min conc. response: 30 µM

EC50: 1 to 20 µM
Structure (SMILES): COCCN(CCOC)CCc1nc(C(F)(F)F)c(C(=O)NC(C)c2cccc(OC(F)(F)F)c2)s1 (stereo not shown) [Example 38]
Min conc. response: 3 µM

EC50: 0.05 to 1 µM
Structure (SMILES): CCCN(CC1CC1)CC(O)c1nc(C(F)(F)F)c(C(=O)NC(C)c2cccc(OC(F)(F)F)c2)s1 (stereo not shown) [Example 44]
Min conc. response: 3 µM

EC50: 1 to 20 µM
Structure (SMILES): CC(NC(=O)c1sc(CCN2CCCC2)nc1C(F)(F)F)c1cccc(OC(F)(F)F)c1 (stereo not shown) [Example 13, 2-[2-(1-pyrrolidinyl)ethyl]-4-(trifluoromethyl)-N-[1-[3-(trifluoromethoxy)phenyl]ethyl]-5-thiazolecarboxamide]
Min conc. response: 10 µM

EC50: 1 to 20 µM
Structure (SMILES): CCC(CC)NCCc1nc(C(F)(F)F)c(C(=O)NC(C)c2cccc(OC(F)(F)F)c2)s1 (stereo not shown) [Example 33, 2-[2-(3-pentylamino)ethyl]-N-[1-[3-(trifluoromethoxy)phenyl]ethyl]-4-(trifluoromethyl)-5-thiazolecarboxamide]

— patent publication US6933308B2 (Bristol-Myers Squibb Company, priority 2002, dated 2005)
